Publication PMC12692861, “Biotin-Linked Ursolic Acid Conjugates as Selective Anticancer Agents and Target-Identification Tools for Cancer Therapy” (Molecules, 2025)
Like-named read-outs stand apart in the source and are kept apart here.

Key:
[1] = system: MB49 cells; test: Annexin V-FITC/PI apoptosis flow cytometry; assay type: cell-based, murine; conditions: Mus musculus, MB49, 24 h, read-out: Q4-3 (Q3, viable) cells
Experimental: (§1) The potential of cells treated with UA or 5c to undergo dose-dependent apoptosis was explored using quantitative flow cytometric analysis, as shown in Figure 4. Utilizing a kit that detects quantitative binding of Annexin V to externalized phosphatidyl serine during the apoptosis cascade and permeability of Propidium iodide (PI) in cells undergoing cell death, we determined the cells at various stages of cell death following 24h incubation with UA and 5c in various bladder cancer cells.
(§2) We used a fluorescence-based Annexin V binding assay to determine the fraction of the cell population undergoing early and late apoptosis due to the cytotoxicity of the drugs. Cells plated in a 60 mm dish overnight at 0.3 × 10^6 cells/well were incubated with the selected drug at several doses for 24 h. Subsequently, treated cells were labeled with FITC-Annexin V using a kit (eBioscience™ Annexin V Apoptosis Detection Kits; Invitrogen # 88-8005-72, Thermo Fisher Scientific, Seoul, Korea) as per the manufacturer’s instructions. Intact cell suspension labeled with FITC-Annexin V and PI was run on the NovoCyte Quanteon flow cytometer, and data were acquired in list mode. Acquired data were analyzed using NovoExpress software (version 1.6.1). Cells treated with Staurosporine (0.2 µM) act as a positive control.

[2] = system: 5637 cells; test: Annexin V-FITC/PI apoptosis flow cytometry; assay type: cell-based; conditions: Homo sapiens, 24 h, read-out: Q3-3 (Q3, viable) cells
Experimental: as §1, §2

[3] = system: human bladder cancer cell lines T24 and 5637; test: MTT antiproliferative activity, result in words; assay type: cell-based; conditions: 72 h
Experimental: (§3) The synthesized hybrid conjugates 5a–d were evaluated for their antiproliferative activity against the established human bladder cancer cell lines T24 and 5637. Test compounds were dissolved in ultrapure dimethyl sulfoxide (DMSO), diluted in cell culture media, added to cells cultured in 96-well cluster wells, and incubated for 72 h. The concentration of DMSO in culture media was maintained at < 0.05%. As previously reported, the fraction of viable cells in the culture wells was compared to that in cultures with 0.05% DMSO-only using a colorimetric assay, the Methyl Tetrazolium Bromide (MTT) reduction assay. We determined the selectivity index (SI) of the compounds 5a–d against tumor cells by comparing their cytotoxicity to that of a non-tumorigenic breast epithelial cell line, MCF-12A, as well as a non-tumorigenic, immortalized urothelial cell line, UROtsa (Table 1, and Figure 2).
The antiproliferative activities of various compounds examined in this report were measured using the MTT (3-[4,5-dimethylthiazol-2-yl]-2,5-diphenyl-tetrazolium bromide) reduction assay, as previously described. […] The purple-colored formazan crystals were dissolved in DMSO, and absorbance was recorded at wavelengths 570/640 nm using the Bio-Rad Benchmark Plus Microplate Reader. The percent of viable cells was calculated ODtreated cells/ODcontrol cell wells × 100.

[4] = system: T24 cells; test: MTT antiproliferative assay; assay type: cell-based, human; conditions: for IC50: Homo sapiens, T-24, MTT, 72 h, read-out: IC50 (Mean ± SD), T24; for SI (selectivity index), T24: IC50 MCF-12A / IC50 T24
Experimental: as §3
(§4) The antiproliferative activities of various compounds examined in this report were measured using the MTT (3-[4,5-dimethylthiazol-2-yl]-2,5-diphenyl-tetrazolium bromide) reduction assay, as previously described. Briefly, cells were seeded at 2 × 10^3 cells per well in a 96-well plate and cultured overnight. The cells were then treated with different doses (5 µM, 10 µM, 15 µM, 20 µM, 25 µM, 30 µM, 35 µM, 40 µM in DMSO) for 72 h. Viability of the treated cultures was estimated by conversion of MTT to the insoluble formazan after 3h incubation at 37 °C and 5% CO2. The purple-colored formazan crystals were dissolved in DMSO, and absorbance was recorded at wavelengths 570/640 nm using the Bio-Rad Benchmark Plus Microplate Reader. The percent of viable cells was calculated ODtreated cells/ODcontrol cell wells × 100.

[5] = system: 5637 cells; test: MTT antiproliferative assay; assay type: cell-based, human; conditions: for IC50: 72 h, MTT, read-out: IC50 (Mean ± SD), 5637
Experimental: as §3, §4

[6] = system: MCF-12A; test: MTT assay, non-tumorigenic breast epithelial cell line; assay type: cell-based, human; conditions: Homo sapiens, MCF-12A; MTT, 72 h, non-tumorigenic cells; read-out: IC50 (Mean ± SD), MCF-12A
Experimental: as §3, §4

Work on `CN[C@@H]1C[C@H]2O[C@@](C)([C@@H]1OC)n1c3ccccc3c3c4c(c5c6ccccc6n2c5c31)C(=O)NC4` [Stauro., Staurosporine] yielded a viability at 0.2 µM [1] of 12.3% and a viability at 0.2 µM [2] of 25.3%.
For `CC1CCC2(C(=O)OCCCOC(=O)CCCCC3SCC4NC(=O)NC43)CCC3(C)C(=CCC4C5(C)CCC(O)C(C)(C)C5CCC43C)C2C1C` [Compound 5b, 3-((5-((3aS,4S,6aR)-2-Oxohexahydro-1H-thieno [3,4-d]imidazol-4-yl)pentanoyl)oxy) propyl 3-hydroxy-urs-12-en-28-oate], the “antiproliferative activity” value [3] was “ineffective”, the IC50 [4] was 108 ± 24.4 µM and the “SI (selectivity index), T24” value [4] was 0.68. For the same molecule, the IC50 ([5]; Homo sapiens) was at least 10000 µM, the IC50 [5] was over 10000 µM and the IC50 [6] was 73.33 ± 0.12 µM.
In the case of `CC1CCC2(C(=O)OCCCCCCOC(=O)CCCCC3SCC4NC(=O)NC43)CCC3(C)C(=CCC4C5(C)CCC(O)C(C)(C)C5CCC43C)C2C1C` [Compound 5d, 6-((5-((3aS,4S,6aR)-2-Oxohexahydro-1H-thieno [3,4-d]imidazol-4-yl)pentanoyl)oxy) hexyl 3-hydroxy-urs-12-en-28-oate], the “antiproliferative activity” value [3] is reported as “largely inactive”, the IC50 [4] is reported as 582 µM and the “SI (selectivity index), T24” value [4] is reported as 6.57. It also gave an IC50 ([5]; Homo sapiens) of over 10000 µM and an IC50 [6] of 3820 µM.
In the case of `CC1CCC2(C(=O)OCCOC(=O)CCCCC3SCC4NC(=O)NC43)CCC3(C)C(=CCC4C5(C)CCC(O)C(C)(C)C5CCC43C)C2C1C` [Compound 5a, 2-((5-((3aS,4S,6aR)-2-Oxohexahydro-1H-thieno [3,4-d]imidazol-4-yl)pentanoyl)oxy) ethyl 3-hydroxy-urs-12-en-28-oate], the IC50 [4] is reported as 14.6 ± 4.97 µM, the “SI (selectivity index), T24” value [4] is reported as 42.96 and the IC50 ([5]; Homo sapiens) is reported as 39.3 ± 21.2 µM. The “SI (selectivity index), 5637” value ([5]; IC50 MCF-12A / IC50 5637) was 15.92 and the IC50 [6] was 626 ± 34.7 µM.
